Data on six compounds can be found in patent publication US4927837A, “Derivatives of 3-piperidine carbaldehyde oxime and their use as medicaments” (Roussel Uclaf, priority 1987, dated 1990).

Like-named read-outs stand apart in the source and are kept apart here.

Data set [1] in a line: Diarrheic activity in mice, oral route. The conditions noted are these: mouse, in vivo, male mice, read-out: DE50 (dose which causes diarrhea in 50% of the animals). The protocol: The test is carried out on male mice (CD1 Charles Rivers) weighing 25 to 30 g, which have gone without food for 6 hours. The product, dissolved at 5% in methocel, is administered by oral route, using a probang.
The control animals receive only the excipient.
After treatment, the animals are put separately into cages, the bottoms of which are covered with blotting paper, and are put under observation for 30, 60, 120 and 180 minutes.
The absorbent sheets of paper are changed after each observation.
The consistency of the faeces is evaluated according to the Randall and Baruth method (Arch. Int. Pharmacodyn. 220, 94, 1976), according to the scale of the following values:
1: slightly moist faeces with or without halo of humidity,
2: slightly moist faeces with presence of well-defined circle of humidity,
3: moist faeces with presence of a large circle of humidity,
4: faeces without consistency with presence of a very large circle of humidity.
For each product, the dose which causes diarrhea in 50% of the animals is noted according to the method of Miller and Tainter (Proc. Soc. Exp. Biol. Med., 57, 261, 1944).

Data set [2] in a line: Variation in body temperature (duration of action). The class given is in vivo, mice. The protocol: (§1) The test is carried out on male mice (CD1 Charles Rivers) weighing 25 to 30 g, which have gone without food for 6 hours.
The body temperature is noted using a thermocouple placed about 1.5 cm inside the rectum, and connected to an electric temperature recorder. […]
The duration of action of the products is determined using doses capable of reducing the temperature by 1° to 1.5° C.

Data set [3] in a line: Hypothermic activity in mice. The class given is in vivo. The conditions noted are these: Mus musculus, male mice, read-out: Effective dose (-1° C.). The protocol:
as §1
The body temperature is noted using a thermocouple placed about 1.5 cm inside the rectum, and connected to an electric temperature recorder.
The products are administered by oral or subcutaneous route and the temperatures are noted at instant 0 and at 30 minutes, 1 hour, 2 hours and 21/2 hours after treatment.
The degree of hypothermia is evaluated as the difference between the treated animals and the control animals, and the dose necessary for reducing the body temperature by 1° C. is determined.

Data set [4] relates to isolated ileum of guinea pigs. In words: Test on the isolated ileum of guinea pigs (agonistic activity). The conditions noted are these: Cavia porcellus; isolated guinea pig ileum, contraction, Tyrode's solution, 37° C.; read-out: pD2 (negative logarithm of the dose which produces 50% of the maximum effect) (converted). The protocol: Fragments of the ileum of guinea pigs killed by decapitation are removed. The isolated ileum is placed in 10 cm^3 of Tyrode's solution at 37° C. and aerated by a mixture of oxygen (95%) and carbon dioxide gas (5%). The contractions due to the products are recorded with a detector linked to a polygraph. The products under test are added at concentrations between 1.10^-4 M and 1.10^-8 M/1.
The products showing a contracting effect are tested vis a vis atropine and hexamethonium in order to establish whether the activity is of "muscarine" or "nicotine" type.
The possible antagonistic activity of the products is tested vis a vis acetylcholine.
The agonistic activity is expressed in pD2 (negative logarithm of the dose which produces 50% of the maximum effect.)

The next data set in a line: in vivo. The conditions noted are these: mouse, male mice, oral route, mortality noted for 7 days. The protocol:
The test is carried out on male mice (CD1 Charles Rivers) of 22 to 24 g, which have gone without food for 16 hours.

The subject of data set [5] is patients who have a memory deficiency. Particulars: intravenous route; cited from earlier work.
The subject of data set [6] is central cholinergic system. Particulars: cited from earlier work.
Setting [7] is: 2 mg/kg, sc, 30 min, **p < 0.01.
Where [8] appears, read: 2 mg/kg, sc, 60 min, **p < 0.01.

`CON=CC1CCCN(O)C1` (stereo not drawn) [Example 8, 1-hydroxy-3-piperidine carbaldehyde (O-methyloxime)]: the ED50 in data set [1] turned out to be 4 mg/kg. Further, the “Variation in body temperature” value was “+0.1 °C” in data set [2] (2 mg/kg, sc, 0 min); -1.2 °C in data set [2] (setting [7]); -1.0 °C in data set [2] (setting [8]); “+0.1 °C” in data set [2] (2.5 mg/kg, os, 0 min); -1.2 °C in data set [2] (2.5 mg/kg, os, 30 min, **p < 0.01); -1.0 °C in data set [2] (2.5 mg/kg, os, 60 min, **p < 0.01). In addition, in data set [2] (2.5 mg/kg, os, 180 min), the “Variation in body temperature” value is “+0.2 °C”. In addition, the ED (-1 C) in data set [3] (O. R. (oral route)) was determined as 2 mg/kg; in data set [3] (SC. R. (subcutaneous route)) it was 1.6 mg/kg. Also, the EC50 in data set [4] is 11.2 µM. This compound came in with an LD50 at 168 h in the data set “in vivo” of 200 mg/kg.
As to `C#CCON=CC1CCCNC1` (stereo not drawn) [Example 6, 3-piperidine carbaldehyde O-(2-propynyl) oxime], in data set [1], the ED50 amounted to 12 mg/kg. For the same compound, the “Variation in body temperature” value in data set [2] (12.5 mg/kg, os, 0 min) is “+0.1 °C”; in data set [2] (12.5 mg/kg, os, 30 min, **p < 0.01), -1.2 °C; in data set [2] (12.5 mg/kg, os, 60 min, **p < 0.01), -1.4 °C; in data set [2] (12.5 mg/kg, os, 120 min), -0.1 °C; in data set [2] (12.5 mg/kg, os, 180 min) it was “+0.1 °C”; in data set [2] (12.5 mg/kg, sc, 0 min) it was -0.1 °C. The “Variation in body temperature” value in data set [2] (12.5 mg/kg, sc, 30 min, **p < 0.01) is -1.6 °C; in data set [2] (12.5 mg/kg, sc, 60 min, **p < 0.01), -1.5 °C; in data set [2] (12.5 mg/kg, sc, 120 min), -0.2 °C; in data set [2] (12.5 mg/kg, sc, 180 min) it was “+0.1 °C”. In addition, the ED (-1 C) in data set [3] (O. R. (oral route)) and in data set [3] (SC. R. (subcutaneous route)) was 7 mg/kg each time. In addition, the EC50 in data set [4] is 4.47 µM. Also, the LD50 at 168 h in the data set “in vivo” was 100 mg/kg.
For `CON=CC1CCCN(OC(=O)c2ccccc2)C1` (stereo not drawn) [Example 7, 1-benzoyloxy-3-piperidine carbaldehyde (O-methyloxime)], in data set [1], the ED50 worked out at 10 mg/kg. In addition, the “Variation in body temperature” value in data set [2] (5 mg/kg, os, 0 min) was “+0.1 °C”; in data set [2] (5 mg/kg, os, 30 min, **p < 0.01), -1.2 °C; in data set [2] (5 mg/kg, os, 60 min, **p < 0.01) it was -1.0 °C; in data set [2] (5 mg/kg, os, 120 min), “+0.1 °C”; in data set [2] (5 mg/kg, os, 180 min) it was “+0.1 °C”; in data set [2] (5 mg/kg, sc, 0 min) it was “+0.1 °C”. Also, the “Variation in body temperature” value was -1.2 °C in data set [2] (5 mg/kg, sc, 30 min, **p < 0.01); -1.1 °C in data set [2] (5 mg/kg, sc, 60 min, **p < 0.01); “+0.1 °C” in data set [2] (5 mg/kg, sc, 180 min). Besides, the ED (-1 C) in data set [3] (O. R. (oral route)) and in data set [3] (SC. R. (subcutaneous route)) was 4 mg/kg throughout. The EC50 in data set [4] was over 100 µM. The LD50 at 168 h in the data set “in vivo” was over 500 mg/kg.
On to `COC(=O)C1=CCCN(C)C1` [Arecoline, reference compound], for which the ED50 in data set [1] was 35 mg/kg. Moreover, the ED (-1 C) in data set [3] (O. R. (oral route)) was determined as 194 mg/kg; in data set [3] (SC. R. (subcutaneous route)), 3 mg/kg. For the same compound, the EC50 in data set [4] is 0.126 µM. Further, the “effect on patients who have a memory deficiency” value in data set [5] is listed as “positive effect”. Further, the period of action result in data set [6] (in vivo) is reported as “short-lasting period of action”. Besides, the “activity by oral route” value in data set [6] (oral route) was “very weak activity by oral route”.
Regarding `CON=CC1CCCNC1` (stereo not drawn) [Example 2, 3-piperidine carbaldehyde O-methyloxime], the ED50 in data set [1] was 3 mg/kg. For the same compound, the “Variation in body temperature” value is “+0.1 °C” in data set [2] (2 mg/kg, os, 0 min); -1.7 °C in data set [2] (2 mg/kg, os, 30 min, **p < 0.01); -1.4 °C in data set [2] (2 mg/kg, os, 60 min, **p < 0.01); “+0.1 °C” in data set [2] (2 mg/kg, os, 120 min); “+0.1 °C” in data set [2] (2 mg/kg, os, 180 min); -1.7 °C in data set [2] (setting [7]). For the same compound, the “Variation in body temperature” value in data set [2] (setting [8]) is -1.5 °C; in data set [2] (2 mg/kg, sc, 180 min), “+0.1 °C”. The ED (-1 C) in data set [3] (O. R. (oral route)) and in data set [3] (SC. R. (subcutaneous route)) was 1.2 mg/kg throughout. In addition, in data set [4], the EC50 was 0.891 µM. The same compound had an LD50 at 168 h in “in vivo” of 125 mg/kg.
As to `COC(=O)C1=CCCN(C)C1` [Arecoline, HBr, reference compound], the “Variation in body temperature” value is -0.1 °C in data set [2] (3.5 mg/kg, sc, 0 min); -1.5 °C in data set [2] (3.5 mg/kg, sc, 30 min, **p < 0.01); -0.1 °C in data set [2] (3.5 mg/kg, sc, 60 min); “+0.2 °C” in data set [2] (3.5 mg/kg, sc, 120 min); “+0.2 °C” in data set [2] (3.5 mg/kg, sc, 180 min).
